Reference: PubChem BioAssay AID1963430 (Molecular Pharmacology Branch, DTP, NCI, 2024)
Values joined by “and” are separate entries in the source; they are usually repeats but may differ in a detail not shown here. Equal values may be shown once.

Test system: 521955-158-R2-J5-PDC complex spheroid growth, % test/control
Assay: Anticancer human tumor 521955-158-R2-J5-PDC patient-derived pancreatic carcinoma cell line growth inhibition [Asc]
Details: for viability, T/C: stronger effect = lower value
Method in brief: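 Tumor cells were grown as multicellular spheroids with stromal HUVEC and mesenchymal stem cells and treated singly or in combination. Concentrations fell in half-log steps from the clinical Cmax, or from 10 microM where none was known.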

[1] = curve of first compound, second compound 0.01 µM
[2] = curve of first compound, second compound 0.0316 µM
[3] = curve of first compound, second compound 0.1 µM
[4] = curve of first compound, second compound 0.316 µM
[5] = curve of first compound, second compound 1 µM
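Further: spheroids exposed to agents for 7 days before readout.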
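Wherever viability, T/C is given: 100% = DMSO vehicle control viability.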

How did the viability, T/C (compound 0.00316 µM) turn out when O=C(c1ccc(F)c(F)c1Nc1ccc(I)cc1F)N1CC(O)([C@@H]2CCCCN2)C1 was run?
The viability, T/C was 73.4% and 81.6% and 64.9%.

What about the viability, T/C (compound 0.01 µM) of the same molecule?
The viability, T/C was 73.2% and 72.4% and 79.1%.

What about the viability, T/C (compound 0.0316 µM) of the same molecule?
The viability, T/C was 61.1% and 71.3% and 49.6%.

What about the viability, T/C (compound 0.1 µM) of the same molecule?
Its viability, T/C is 47.8% and 51.4% and 31%.

And the viability, T/C (compound 0.316 µM)?
Its viability, T/C is 41.1% and 47.1% and 32.3%.

And the viability, T/C (compound 1 µM)?
Its viability, T/C is 33.1% and 31.4% and 26%.

What about the IC50 (curve of compound) of the same molecule?
Its IC50 is 0.0902 µM and 0.184 µM and 0.0309 µM.

What does the source list for NC(=O)C(=Cn1cnc(-c2cc(C(F)(F)F)cc(C(F)(F)F)c2)n1)c1cncnc1 + CNC(C)C(=O)NC1CN(S(=O)(=O)c2cccc(S(=O)(=O)N3CCC4CCC(C(=O)NC(c5ccccc5)c5ccccc5)N4C(=O)C(NC(=O)C(C)NC)C3)c2)CCC2CCC(C(=O)NC(c3ccccc3)c3ccccc3)N2C1=O?
IC50 [1]: 0.00534 µM; IC50 [2]: 0.00862 µM; IC50 [3]: 0.0446 µM; IC50 [4]: 0.0234 µM; IC50 [5]: 0.0474 µM; viability, T/C (second compound 0.01 µM, first compound 0.000949 µM): 96.9%; viability, T/C (second compound 0.01 µM, first compound 0.003 µM): 60.7%; viability, T/C (second compound 0.01 µM, first compound 0.00949 µM): 39%; viability, T/C (second compound 0.01 µM, first compound 0.03 µM): 43%; viability, T/C (second compound 0.01 µM, first compound 0.0949 µM): 37.4%; viability, T/C (second compound 0.01 µM, first compound 0.3 µM): 34.8%; viability, T/C (second compound 0.0316 µM, first compound 0.000949 µM): 84.4%; viability, T/C (second compound 0.0316 µM, first compound 0.003 µM): 91.9%; viability, T/C (second compound 0.0316 µM, first compound 0.00949 µM): 46.5%; viability, T/C (second compound 0.0316 µM, first compound 0.03 µM): 36.5%; viability, T/C (second compound 0.0316 µM, first compound 0.0949 µM): 34.8%; viability, T/C (second compound 0.0316 µM, first compound 0.3 µM): 27.4%; viability, T/C (second compound 0.1 µM, first compound 0.000949 µM): 97.8%; viability, T/C (second compound 0.1 µM, first compound 0.003 µM): 77.9%; viability, T/C (second compound 0.1 µM, first compound 0.00949 µM): 72.9%; viability, T/C (second compound 0.1 µM, first compound 0.03 µM): 52.6%; viability, T/C (second compound 0.1 µM, first compound 0.0949 µM): 42.6%; viability, T/C (second compound 0.1 µM, first compound 0.3 µM): 27.1%; viability, T/C (second compound 0.316 µM, first compound 0.000949 µM): 86.2%; viability, T/C (second compound 0.316 µM, first compound 0.003 µM): 76%; viability, T/C (second compound 0.316 µM, first compound 0.00949 µM): 39.8%; viability, T/C (second compound 0.316 µM, first compound 0.03 µM): 61.5%; viability, T/C (second compound 0.316 µM, first compound 0.0949 µM): 40.7%; viability, T/C (second compound 0.316 µM, first compound 0.3 µM): 25.9%; viability, T/C (second compound 1 µM, first compound 0.000949 µM): 108%; viability, T/C (second compound 1 µM, first compound 0.003 µM): 89.7%; viability, T/C (second compound 1 µM, first compound 0.00949 µM): 77.2%; viability, T/C (second compound 1 µM, first compound 0.03 µM): 58.6%; viability, T/C (second compound 1 µM, first compound 0.0949 µM): 36.1%; viability, T/C (second compound 1 µM, first compound 0.3 µM): 32.3%

What does the source list for Cn1ncnc1[C@H]1c2n[nH]c(=O)c3cc(F)cc(c23)N[C@@H]1c1ccc(F)cc1 + CNC(C)C(=O)NC1CN(S(=O)(=O)c2cccc(S(=O)(=O)N3CCC4CCC(C(=O)NC(c5ccccc5)c5ccccc5)N4C(=O)C(NC(=O)C(C)NC)C3)c2)CCC2CCC(C(=O)NC(c3ccccc3)c3ccccc3)N2C1=O?
IC50 [1]: > 0.1 µM; IC50 [2]: > 0.1 µM; IC50 [3]: > 0.1 µM; IC50 [4]: > 0.1 µM; IC50 [5]: > 0.1 µM; viability, T/C (second compound 0.01 µM, first compound 0.000316 µM): 103%; viability, T/C (second compound 0.01 µM, first compound 0.001 µM): 103%; viability, T/C (second compound 0.01 µM, first compound 0.00316 µM): 85.7%; viability, T/C (second compound 0.01 µM, first compound 0.01 µM): 65.6%; viability, T/C (second compound 0.01 µM, first compound 0.0316 µM): 65.4%; viability, T/C (second compound 0.01 µM, first compound 0.1 µM): 71.9%; viability, T/C (second compound 0.0316 µM, first compound 0.000316 µM): 103%; viability, T/C (second compound 0.0316 µM, first compound 0.001 µM): 102%; viability, T/C (second compound 0.0316 µM, first compound 0.00316 µM): 89.6%; viability, T/C (second compound 0.0316 µM, first compound 0.01 µM): 78%; viability, T/C (second compound 0.0316 µM, first compound 0.0316 µM): 62.3%; viability, T/C (second compound 0.0316 µM, first compound 0.1 µM): 64.1%; viability, T/C (second compound 0.1 µM, first compound 0.000316 µM): 80.8%; viability, T/C (second compound 0.1 µM, first compound 0.001 µM): 108%; viability, T/C (second compound 0.1 µM, first compound 0.00316 µM): 91%; viability, T/C (second compound 0.1 µM, first compound 0.01 µM): 76.5%; viability, T/C (second compound 0.1 µM, first compound 0.0316 µM): 86.9%; viability, T/C (second compound 0.1 µM, first compound 0.1 µM): 56.2%; viability, T/C (second compound 0.316 µM, first compound 0.000316 µM): 100%; viability, T/C (second compound 0.316 µM, first compound 0.001 µM): 83%; viability, T/C (second compound 0.316 µM, first compound 0.00316 µM): 96.4%; viability, T/C (second compound 0.316 µM, first compound 0.01 µM): 79.2%; viability, T/C (second compound 0.316 µM, first compound 0.0316 µM): 73.4%; viability, T/C (second compound 0.316 µM, first compound 0.1 µM): 63.2%; viability, T/C (second compound 1 µM, first compound 0.000316 µM): 108%; viability, T/C (second compound 1 µM, first compound 0.001 µM): 75.1%; viability, T/C (second compound 1 µM, first compound 0.00316 µM): 102%; viability, T/C (second compound 1 µM, first compound 0.01 µM): 89.5%; viability, T/C (second compound 1 µM, first compound 0.0316 µM): 68.3%; viability, T/C (second compound 1 µM, first compound 0.1 µM): 86.6%

What does the source list for O=C(c1ccc(F)c(F)c1Nc1ccc(I)cc1F)N1CC(O)([C@@H]2CCCCN2)C1 + CCN1C(C(=O)NC23CCC(C(=O)O)(CC2)CC3)C(c2cccc(Cl)c2F)C2(C(=O)Nc3cc(Cl)ccc32)C12CCCCC2?
IC50 (curve of first compound, second compound 0.03 µM): 0.077 µM; IC50 (curve of first compound, second compound 0.0949 µM): 0.0394 µM; IC50 (curve of first compound, second compound 0.3 µM): 0.165 µM; IC50 (curve of first compound, second compound 0.949 µM): 0.156 µM; IC50 (curve of first compound, second compound 3 µM): 0.62 µM; viability, T/C (second compound 0.03 µM, first compound 0.00316 µM): 65.8%; viability, T/C (second compound 0.03 µM, first compound 0.01 µM): 56%; viability, T/C (second compound 0.03 µM, first compound 0.0316 µM): 62.5%; viability, T/C (second compound 0.03 µM, first compound 0.1 µM): 45.1%; viability, T/C (second compound 0.03 µM, first compound 0.316 µM): 37.2%; viability, T/C (second compound 0.03 µM, first compound 1 µM): 29.1%; viability, T/C (second compound 0.0949 µM, first compound 0.00316 µM): 80.7%; viability, T/C (second compound 0.0949 µM, first compound 0.01 µM): 80.1%; viability, T/C (second compound 0.0949 µM, first compound 0.0316 µM): 51.1%; viability, T/C (second compound 0.0949 µM, first compound 0.1 µM): 51.7%; viability, T/C (second compound 0.0949 µM, first compound 0.316 µM): 43.1%; viability, T/C (second compound 0.0949 µM, first compound 1 µM): 35.4%; viability, T/C (second compound 0.3 µM, first compound 0.00316 µM): 64.5%; viability, T/C (second compound 0.3 µM, first compound 0.01 µM): 83.3%; viability, T/C (second compound 0.3 µM, first compound 0.0316 µM): 85.2%; viability, T/C (second compound 0.3 µM, first compound 0.1 µM): 60%; viability, T/C (second compound 0.3 µM, first compound 0.316 µM): 40.9%; viability, T/C (second compound 0.3 µM, first compound 1 µM): 33.1%; viability, T/C (second compound 0.949 µM, first compound 0.00316 µM): 93.3%; viability, T/C (second compound 0.949 µM, first compound 0.01 µM): 91.3%; viability, T/C (second compound 0.949 µM, first compound 0.0316 µM): 82.4%; viability, T/C (second compound 0.949 µM, first compound 0.1 µM): 57.3%; viability, T/C (second compound 0.949 µM, first compound 0.316 µM): 37.8%; viability, T/C (second compound 0.949 µM, first compound 1 µM): 38.1%; viability, T/C (second compound 3 µM, first compound 0.00316 µM): 107%; viability, T/C (second compound 3 µM, first compound 0.01 µM): 102%; viability, T/C (second compound 3 µM, first compound 0.0316 µM): 80%; viability, T/C (second compound 3 µM, first compound 0.1 µM): 71.8%; viability, T/C (second compound 3 µM, first compound 0.316 µM): 61.8%; viability, T/C (second compound 3 µM, first compound 1 µM): 42.5%
